Test results published in ChEMBL document CHEMBL1201862, “PubChem BioAssay data set” (2004).
Active and inactive are the calls of the source. No stated cut-off is given here; in the data, actives have a measured IC50 and inactives only a lower limit.

Experiments:
Type in all cases: functional
Caspase-3 = target: T1, Caspase-3 (Homo sapiens, UniProt P42574);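 further: Dose-response selectivity test against caspase-3 for candidate inhibitors of sentrin-specific proteases (SENPs)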
T1 sequence (P42574 whole entry): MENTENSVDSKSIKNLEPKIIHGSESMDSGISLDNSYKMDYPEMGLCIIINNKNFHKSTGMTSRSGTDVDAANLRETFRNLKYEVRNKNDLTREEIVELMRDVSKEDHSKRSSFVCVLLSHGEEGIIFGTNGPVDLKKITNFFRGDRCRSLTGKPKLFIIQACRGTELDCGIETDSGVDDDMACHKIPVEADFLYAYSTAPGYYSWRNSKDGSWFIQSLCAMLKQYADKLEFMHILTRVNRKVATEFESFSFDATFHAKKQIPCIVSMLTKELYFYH

[1] = target: T2, Sentrin-specific protease 7 (Homo sapiens, UniProt Q9BQF6);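 further: Luminescence-based dose-response confirmation of ultra-high-throughput screening hits, measuring inhibition of SENP7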
T2 sequence (Q9BQF6 whole entry): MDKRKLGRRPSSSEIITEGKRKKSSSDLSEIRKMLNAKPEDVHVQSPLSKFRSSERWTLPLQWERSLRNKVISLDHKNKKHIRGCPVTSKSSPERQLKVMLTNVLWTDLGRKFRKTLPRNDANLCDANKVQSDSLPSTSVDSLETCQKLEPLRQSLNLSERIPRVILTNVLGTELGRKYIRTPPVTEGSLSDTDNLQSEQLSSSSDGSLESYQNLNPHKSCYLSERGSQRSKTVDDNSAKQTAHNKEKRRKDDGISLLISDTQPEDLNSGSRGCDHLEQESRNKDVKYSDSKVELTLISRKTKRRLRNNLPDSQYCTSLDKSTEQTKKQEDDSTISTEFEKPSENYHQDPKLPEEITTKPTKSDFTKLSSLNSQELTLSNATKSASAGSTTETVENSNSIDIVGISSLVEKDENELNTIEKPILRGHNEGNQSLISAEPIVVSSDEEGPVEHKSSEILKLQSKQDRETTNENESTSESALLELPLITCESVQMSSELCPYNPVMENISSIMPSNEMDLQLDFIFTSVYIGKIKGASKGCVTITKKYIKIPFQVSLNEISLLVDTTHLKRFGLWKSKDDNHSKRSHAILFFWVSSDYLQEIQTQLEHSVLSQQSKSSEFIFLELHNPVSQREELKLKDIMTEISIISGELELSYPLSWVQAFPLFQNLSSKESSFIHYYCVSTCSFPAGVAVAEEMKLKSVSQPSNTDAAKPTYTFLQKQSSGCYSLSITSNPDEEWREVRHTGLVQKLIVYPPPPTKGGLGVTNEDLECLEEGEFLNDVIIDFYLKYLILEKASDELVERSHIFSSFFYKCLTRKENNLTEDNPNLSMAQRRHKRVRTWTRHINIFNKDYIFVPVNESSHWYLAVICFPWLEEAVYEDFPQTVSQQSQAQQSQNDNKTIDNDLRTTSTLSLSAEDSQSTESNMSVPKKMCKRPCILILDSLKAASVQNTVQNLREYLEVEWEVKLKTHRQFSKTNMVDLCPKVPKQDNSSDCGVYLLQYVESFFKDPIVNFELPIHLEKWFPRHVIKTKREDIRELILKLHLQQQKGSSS

[2] = target: T3, Sentrin-specific protease 6 (Homo sapiens, UniProt Q9GZR1);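 further: Luminescence-based dose-response confirmatory assay of SENP6 inhibition, following up an ultra-high-throughput screen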
T3 sequence (Q9GZR1 whole entry): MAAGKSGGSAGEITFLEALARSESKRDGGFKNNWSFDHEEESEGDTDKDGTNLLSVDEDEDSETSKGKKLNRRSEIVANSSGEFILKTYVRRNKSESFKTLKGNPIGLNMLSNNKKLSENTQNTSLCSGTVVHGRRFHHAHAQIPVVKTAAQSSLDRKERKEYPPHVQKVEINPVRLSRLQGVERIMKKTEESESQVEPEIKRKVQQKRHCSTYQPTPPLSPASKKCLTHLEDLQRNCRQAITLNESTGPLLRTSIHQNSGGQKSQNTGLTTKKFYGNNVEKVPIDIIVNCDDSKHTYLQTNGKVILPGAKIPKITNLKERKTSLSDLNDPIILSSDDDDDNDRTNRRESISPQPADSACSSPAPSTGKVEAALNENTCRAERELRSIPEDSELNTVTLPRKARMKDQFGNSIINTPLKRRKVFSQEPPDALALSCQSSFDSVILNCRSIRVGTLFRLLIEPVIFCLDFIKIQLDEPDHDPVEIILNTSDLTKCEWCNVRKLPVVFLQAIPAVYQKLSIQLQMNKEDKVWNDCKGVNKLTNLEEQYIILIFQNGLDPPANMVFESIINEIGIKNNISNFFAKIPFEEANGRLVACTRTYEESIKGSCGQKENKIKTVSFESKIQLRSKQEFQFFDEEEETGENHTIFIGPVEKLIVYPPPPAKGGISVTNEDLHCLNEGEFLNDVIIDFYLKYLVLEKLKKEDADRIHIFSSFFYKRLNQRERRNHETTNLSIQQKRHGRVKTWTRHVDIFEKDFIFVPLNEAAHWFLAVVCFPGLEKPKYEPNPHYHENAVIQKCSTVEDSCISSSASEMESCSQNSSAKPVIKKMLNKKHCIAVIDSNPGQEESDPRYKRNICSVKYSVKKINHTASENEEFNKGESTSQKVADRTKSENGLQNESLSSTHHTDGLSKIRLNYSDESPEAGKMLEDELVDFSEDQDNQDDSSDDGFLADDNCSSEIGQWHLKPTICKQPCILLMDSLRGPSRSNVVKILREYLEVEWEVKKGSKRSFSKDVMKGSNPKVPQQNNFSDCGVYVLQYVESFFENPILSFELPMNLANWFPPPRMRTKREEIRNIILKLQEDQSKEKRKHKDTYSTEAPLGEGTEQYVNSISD

[3] = target: T4, Sentrin-specific protease 8 (Homo sapiens, UniProt Q96LD8);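 further: luminescence read-out of SENP8 inhibition, dose-response confirmation following an ultra-high-throughput screen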
T4 sequence (Q96LD8 whole entry): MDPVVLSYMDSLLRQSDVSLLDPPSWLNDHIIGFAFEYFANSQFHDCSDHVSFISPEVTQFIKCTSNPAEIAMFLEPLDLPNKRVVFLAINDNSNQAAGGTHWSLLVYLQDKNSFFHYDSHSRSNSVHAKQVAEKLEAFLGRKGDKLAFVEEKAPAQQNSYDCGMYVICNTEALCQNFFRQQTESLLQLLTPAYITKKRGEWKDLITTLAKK

Measured: IC50

COc1cc2c(cc1OC)-c1c(OC)c(OC)cc3c1[C@H](C2)N(C)CC3
active: Caspase-3 < 1.55 µM | [1] 7.64 µM | [2] 2.21 µM | [3] 5.13 µM

O=C1C(Cl)=C(N2CCC(C(=O)O)CC2)C(=O)c2ccccc21
active: Caspase-3 15.6 µM | [1] 29.1 µM | [2] 12.6 µM | [3] 20.2 µM
